Measurements reported in US20240424111A1, “Degrader Compounds and Uses Thereof” (CALICO LIFE SCIENCES LLC, priority 2021, published 2024).

Assays:
PTPN2 [1] = biological target: T1, PTPN2 (Homo sapiens, UniProt P17706); assay: HiBiT PTPN2 degradation in 293T.109 (HiBiT-PTPN2) cells, 24 hours; format: cell-based; settings: 293T.109 cells
T1 construct: expressed in transfected cells; host or cells: 293T.109 (HiBiT-PTPN2), derived from 293T WT (ATCC)
T1 sequence (P17706 1-415): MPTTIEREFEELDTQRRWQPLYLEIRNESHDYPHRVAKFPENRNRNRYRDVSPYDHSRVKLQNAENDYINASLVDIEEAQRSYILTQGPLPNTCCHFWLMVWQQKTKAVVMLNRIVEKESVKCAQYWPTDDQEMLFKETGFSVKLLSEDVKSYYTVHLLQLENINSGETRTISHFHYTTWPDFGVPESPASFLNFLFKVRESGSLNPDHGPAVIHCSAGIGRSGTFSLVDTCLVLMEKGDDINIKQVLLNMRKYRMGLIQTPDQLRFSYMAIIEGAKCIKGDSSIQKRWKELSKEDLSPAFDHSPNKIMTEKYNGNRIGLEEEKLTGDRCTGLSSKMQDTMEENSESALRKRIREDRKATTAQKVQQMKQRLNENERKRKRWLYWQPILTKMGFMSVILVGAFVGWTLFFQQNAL
Excerpt: Dulbecco's modified Eagle medium (DMEM) without phenol red and fetal bovine serum (FBS) were purchased from Gibco (Grand Island, NY, USA). Nano-Glo® HiBiT Lytic Assay System was purchased from Promega (Medison, WI, USA). 293T. 109 (HiBiT-PTPN2) cell line was generated by ectopically expressing PTPN2 with N-terminal HiBiT fusion tag in 293T WT cell line purchased from ATCC (Manassas, VA, USA). Cell culture flasks and 384-well microplates were acquired from VWR (Radnor, PA, USA).
PTPN2 Degradation Analysis
(§1) PTPN2 degradation was determined based on quantification of luminescent signal using Nano-Glo® HiBiT Lytic Assay kit. Test compounds were added to the 384-well plate from a top concentration of 10 μM with 11 points, half log titration in duplicates. 293T. 109 cells were added into 384-well plates at a cell density of 5000 cells per well. The plates were kept at 37° C. with 5% CO2 for 24 hours. The cells treated in the absence of the test compound were the negative control and the cells without Nano-Glo® HiBiT Lytic reagent were the positive control. After 24-hour incubation, Nano-Glo® HiBiT Lytic Assay reagents were added to the cells. Luminescence was acquired on EnVision™ Multilabel Reader (PerkinElmer, Santa Clara, CA, USA).

PTPN2 [2] = biological target: T2, PTPN2 (Mus musculus, UniProt Q06180); assay: HiBiT PTPN2 degradation in B16F10.4 cells, 24 hours; format: cell-based
T2 construct: HiBiT; host or cells: B16F10.4
T2 sequence (Q06180 1-406): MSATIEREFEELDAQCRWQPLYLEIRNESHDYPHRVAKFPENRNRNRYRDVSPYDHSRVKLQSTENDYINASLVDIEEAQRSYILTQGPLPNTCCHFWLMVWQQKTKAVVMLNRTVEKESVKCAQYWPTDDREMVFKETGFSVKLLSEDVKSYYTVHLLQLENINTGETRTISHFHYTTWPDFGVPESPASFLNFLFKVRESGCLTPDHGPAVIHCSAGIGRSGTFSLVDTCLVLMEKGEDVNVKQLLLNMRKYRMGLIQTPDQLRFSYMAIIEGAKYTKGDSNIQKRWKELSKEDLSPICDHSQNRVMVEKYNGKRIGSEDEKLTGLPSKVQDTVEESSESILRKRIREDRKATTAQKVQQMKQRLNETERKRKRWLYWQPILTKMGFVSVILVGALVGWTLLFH
Procedure: as §1

Compound | DC50 (PTPN2 [1]) [nM] | DC50 (PTPN2 [2]) [nM]
C[C@@H](C(=O)Nc1ccc2c(F)c(N3CC(=O)NS3(=O)=O)c(O)cc2c1)N1CCC(c2ccc3c(c2)n(C)c(=O)n3C2CCC(=O)NC2=O)CC1 (single isomer, unassigned) [Degrader 104] | 50 to 150 | 50 to 150
Cn1c(=O)n(C2CCC(=O)NC2=O)c2ccc([C@H]3CCN(CC(=O)Nc4ccc5c(F)c(N6CC(=O)NS6(=O)=O)c(O)cc5c4)C3)cc21 (single isomer, unassigned) [Degrader 123] | 50 to 150 | 150 to 500
CCn1c(=O)n(C2CCC(=O)NC2=O)c2ccc([C@H]3CCN(CC(=O)Nc4ccc5c(F)c(N6CC(=O)NS6(=O)=O)c(O)cc5c4)C[C@@H]3F)cc21 (single isomer, unassigned) [Degrader 130] | 150 to 500 | 150 to 500
Cc1nn(CC(=O)Nc2ccc3c(F)c(N4CC(=O)NS4(=O)=O)c(O)cc3c2)c(C)c1-c1ccc2c(C3CCC(=O)NC3=O)nn(C)c2c1 (stereo not drawn) [Degrader 1] | < 50 | < 50
Cn1c(=O)n(C2CCC(=O)NC2=O)c2ccc(C3CCN(CC4CC(C(=O)Nc5ccc6c(F)c(N7CC(=O)NS7(=O)=O)c(O)cc6c5)C4)CC3)cc21 (stereo not drawn) [Degrader 6] | < 50 | 50 to 150
Cn1c(=O)n(C2CCC(=O)NC2=O)c2ccc(C3CCN(CCC(C)(C)CCOc4ccc5cc(O)c(N6CC(=O)NS6(=O)=O)c(F)c5c4)CC3)cc21 (stereo not drawn) [Degrader 7] | < 50 | 150 to 500
Cn1c(=O)n(C2CCC(=O)NC2=O)c2ccc(N3CCC(CCC(=O)Nc4ccc5c(F)c(N6CC(=O)NS6(=O)=O)c(O)cc5c4)CC3)cc21 (stereo not drawn) [Degrader 8] | 50 to 150 | 50 to 150
O=C1CCC(n2c(=O)n(C3COC3)c3cc(C4CCN(CC(=O)Nc5ccc6c(F)c(N7CC(=O)NS7(=O)=O)c(O)cc6c5)CC4)ccc32)C(=O)N1 (stereo not drawn) [Degrader 9] | 150 to 500 | 150 to 500
Cn1c(=O)n(C2CCC(=O)NC2=O)c2ccc(C3CCN(CC(=O)N4CCC(Oc5ccc6cc(O)c(N7CC(=O)NS7(=O)=O)c(F)c6c5)CC4)CC3(F)F)cc21 (stereo not drawn) [Degrader 10] | 50 to 150 | 150 to 500
CCn1nc(C2CCC(=O)NC2=O)c2ccc(C3CCN(CC(=O)Nc4ccc5c(F)c(N6CC(=O)NS6(=O)=O)c(O)cc5c4)CC3(F)F)cc21 (stereo not drawn) [Degrader 11] | 50 to 150 | 150 to 500
CCn1nc(C2CCC(=O)NC2=O)c2ccc(C3CCN(CC(=O)N4CC(Oc5ccc6cc(O)c(N7CC(=O)NS7(=O)=O)c(F)c6c5)C4)CC3(F)F)cc21 (stereo not drawn) [Degrader 12] | < 50 | 50 to 150
CC(C)n1nc(C2CCC(=O)NC2=O)c2ccc(C3CCN(CC(=O)N4CC(Oc5ccc6cc(O)c(N7CC(=O)NS7(=O)=O)c(F)c6c5)C4)CC3(F)F)cc21 (stereo not drawn) [Degrader 13] | 50 to 150 | 50 to 150
Cn1c(=O)n(C2CCC(=O)NC2=O)c2ccc(C3CCN(CC4CC4C(=O)N4CC(Oc5ccc6cc(O)c(N7CC(=O)NS7(=O)=O)c(F)c6c5)C4)CC3)cc21 (stereo not drawn) [Degrader 14] | 50 to 150 | 150 to 500
Cn1c(=O)n(C2CCC(=O)NC2=O)c2ccc([C@@H]3CCN(CC(=O)N4CC(Oc5ccc6cc(O)c(N7CC(=O)NS7(=O)=O)c(F)c6c5)C4)C3)cc21 (stereo partly drawn) [Degrader 16] | 150 to 500 | ≥ 500
Cn1c(=O)n(C2CCC(=O)NC2=O)c2ccc(C3CCN(CC4CC4C(=O)N4CC[C@H](c5ccc6cc(O)c(N7CC(=O)NS7(=O)=O)c(F)c6c5)C4)CC3)cc21 (stereo partly drawn) [Degrader 17] | 50 to 150 | 150 to 500
Cn1c(=O)n(C2CCC(=O)NC2=O)c2ccc(C3CCN(CC4CC4C(=O)N4CC[C@@H](c5ccc6cc(O)c(N7CC(=O)NS7(=O)=O)c(F)c6c5)C4)CC3)cc21 (stereo partly drawn) [Degrader 18] | 50 to 150 | 150 to 500
Cn1c(=O)n(C2CCC(=O)NC2=O)c2ccc(N3CCC(CC(=O)Nc4ccc5c(F)c(N6CC(=O)NS6(=O)=O)c(O)cc5c4)CC3)cc21 (stereo not drawn) [Degrader 19] | < 50 | 50 to 150
Cn1c(=O)n([C@H]2CCC(=O)NC2=O)c2ccc(N3CCC(CC(=O)Nc4ccc5c(F)c(N6CC(=O)NS6(=O)=O)c(O)cc5c4)CC3)cc21 [Degrader 20] | 50 to 150 | 50 to 150

Compound | DC50 (PTPN2 [1]) [nM] | DC50 (PTPN2 [2]) [nM]
Cn1c(=O)n([C@@H]2CCC(=O)NC2=O)c2ccc(N3CCC(CC(=O)Nc4ccc5c(F)c(N6CC(=O)NS6(=O)=O)c(O)cc5c4)CC3)cc21 [Degrader 21] | 50 to 150 | 50 to 150
CCn1c(=O)n(C2CCC(=O)NC2=O)c2ccc(N3CCC(CC(=O)Nc4ccc5c(F)c(N6CC(=O)NS6(=O)=O)c(O)cc5c4)CC3)cc21 (stereo not drawn) [Degrader 22] | 50 to 150 | 50 to 150
C[C@H]1CN(CC(=O)Nc2ccc3c(F)c(N4CC(=O)NS4(=O)=O)c(O)cc3c2)CCN1c1ccc2c(c1)n(C)c(=O)n2C1CCC(=O)NC1=O (stereo partly drawn) [Degrader 23] | 150 to 500 | 150 to 500
C[C@@H]1CN(CC(=O)Nc2ccc3c(F)c(N4CC(=O)NS4(=O)=O)c(O)cc3c2)CCN1c1ccc2c(c1)n(C)c(=O)n2C1CCC(=O)NC1=O (stereo partly drawn) [Degrader 24] | 50 to 150 | 50 to 150
Cn1c(=O)n(C2CCC(=O)NC2=O)c2ccc(-c3ccc(CC(=O)Nc4ccc5c(F)c(N6CC(=O)NS6(=O)=O)c(O)cc5c4)cc3)cc21 (stereo not drawn) [Degrader 25] | < 50 | < 50
Cn1c(=O)n([C@@H]2CCC(=O)NC2=O)c2ccc(-c3ccc(CC(=O)Nc4ccc5c(F)c(N6CC(=O)NS6(=O)=O)c(O)cc5c4)cc3)cc21 [Degrader 26] | 50 to 150 | < 50
Cn1c(=O)n([C@H]2CCC(=O)NC2=O)c2ccc(-c3ccc(CC(=O)Nc4ccc5c(F)c(N6CC(=O)NS6(=O)=O)c(O)cc5c4)cc3)cc21 [Degrader 27] | 50 to 150 | < 50
Cc1cc(CC(=O)Nc2ccc3c(F)c(N4CC(=O)NS4(=O)=O)c(O)cc3c2)ccc1-c1ccc2c(c1)n(C)c(=O)n2C1CCC(=O)NC1=O (stereo not drawn) [Degrader 28] | 50 to 150 | < 50
Cn1c(=O)n(C2CCC(=O)NC2=O)c2ccc(-c3ccc4c(cnn4CC(=O)Nc4ccc5c(F)c(N6CC(=O)NS6(=O)=O)c(O)cc5c4)c3)cc21 (stereo not drawn) [Degrader 29] | 50 to 150 | < 50
Cn1nc(C2CCC(=O)NC2=O)c2ccc(C3CCN(C4CC(C(=O)Nc5ccc6c(F)c(N7CC(=O)NS7(=O)=O)c(O)cc6c5)C4)CC3)cc21 (stereo not drawn) [Degrader 30] | < 50 | 150 to 500
Cn1c(=O)n(C2CCC(=O)NC2=O)c2ccc(-c3ccn(CC(=O)Nc4ccc5c(F)c(N6CC(=O)NS6(=O)=O)c(O)cc5c4)c(=O)c3)cc21 (stereo not drawn) [Degrader 32] | 50 to 150 | 50 to 150
Cn1c(=O)n(C2CCC(=O)NC2=O)c2ccc(-c3ccc(CC(=O)Nc4ccc5c(F)c(N6CC(=O)NS6(=O)=O)c(O)cc5c4)c(F)c3)cc21 (stereo not drawn) [Degrader 33] | 50 to 150 | 50 to 150
Cn1c(=O)n(C2CCC(=O)NC2=O)c2ccc(CC3CCN(C(=O)Nc4ccc5c(F)c(N6CC(=O)NS6(=O)=O)c(O)cc5c4)CC3)cc21 (stereo not drawn) [Degrader 34] | ≥ 500 | ≥ 500
CC(C)n1c(=O)n(C2CCC(=O)NC2=O)c2ccc(N3CCC(CC(=O)Nc4ccc5c(F)c(N6CC(=O)NS6(=O)=O)c(O)cc5c4)CC3)cc21 (stereo not drawn) [Degrader 35] | ≥ 500 | 150 to 500
Cn1c(=O)n(C2CCC(=O)NC2=O)c2ccc(C3CCN(CC(=O)Nc4ccc5c(F)c(N6CC(=O)NS6(=O)=O)c(O)cc5c4)CC3F)cc21 (stereo not drawn) [Degrader 36] | < 50 | < 50
Cn1c(=O)n(C2CCC(=O)NC2=O)c2ccc([C@H]3CCN(CC(=O)Nc4ccc5c(F)c(N6CC(=O)NS6(=O)=O)c(O)cc5c4)C[C@@H]3F)cc21 (stereo partly drawn) [Degrader 37] | 50 to 150 | 50 to 150
Cn1c(=O)n(C2CCC(=O)NC2=O)c2ccc([C@@H]3CCN(CC(=O)Nc4ccc5c(F)c(N6CC(=O)NS6(=O)=O)c(O)cc5c4)C[C@H]3F)cc21 (stereo partly drawn) [Degrader 38] | < 50 | < 50
Cn1nc(C2CCC(=O)NC2=O)c2ccc(Oc3ccc(CC(=O)Nc4ccc5c(F)c(N6CC(=O)NS6(=O)=O)c(O)cc5c4)cc3)cc21 (stereo not drawn) [Degrader 39] | 50 to 150 | 150 to 500
